Test results: US9421175B2, “Prevention of retinopathy by inhibition of the visual cycle” (priority 2004, dated 2016)

What was measured:
Format in all cases: in vivo, rat
[1] = tested on: rats; experiment: Retinal vessel diameter after intravitreal isotretinoin (digital fundus photography); details: single intravitreal injection of isotretinoin 2.5 μg in 10 μl DMSO; 6 h later, dark adapted; 4 eyes; SD 4.2%; p=0.04 vs placebo
Method: Purpose: To assess the effect of intravitreal isotretinoin on retinal vessel diameters in rats, the vein diameter acting as a marker of retinal flow and metabolism.
Methods: In 6 animals, one eye received a single intravitreal injection of isotretinoin 2.5 μg in 10 μl dimethyl sulfoxide (DMSO). The fellow eye received a placebo injection of 10 μl DMSO. Retinal vessel diameter was recorded 6 h later in both eyes after the rats had dark adapted using digital fundus photography in red illumination and assessed using computerized image analysis. All procedures were performed in general anesthesia and the study adhered to the ARVO resolution on animal welfare.

[2] = tested on: Sprague-Dawley rats; experiment: Resistance to retinal ischemia 18 h after intraperitoneal isotretinoin (scotopic ERG 1 week later)
Method: Purpose: To evaluate the efficacy of isotretinoin in the prevention of retinal functional loss following 1 h ischemia induced by elevation of the intraocular pressure beginning 18 h after the intraperitoneal administration of isotretinoin.
(§1) Material and methods: Intraperitoneal isotretinoin 5 mg/kg in dimethyl sulfoxide (DMSO) was given to 6 Sprague-Dawley rats 18 h before intraocular pressure elevation during general anesthesia using cannulation of the anterior chamber in one eye and infusion of balanced saline solution at a pressure of 110 mmHg. The fellow eye was not subjected to ischemia. The animals were kept in ambient room light before and during ischemia. Retinal function was assessed 1 week later by scotopic and mesopic full-field electroretinography (ERG). The study adhered to the ARVO resolution on animal welfare.

[3] = tested on: Sprague-Dawley rats; experiment: Resistance to retinal ischemia 1 h after intraperitoneal isotretinoin (scotopic ERG 1 week later); details: isotretinoin 5 mg/kg i.p. in DMSO 1 h before 1 h ischemia (IOP 110 mmHg), 5 treated rats
Method: Purpose: To evaluate the efficacy of isotretinoin in the prevention of retinal functional loss following 1 h of ocular ischemia induced by elevation of the intraocular pressure beginning 1 h after the intraperitoneal administration of isotretinoin.
as §1, with “Of 12 Sprague-Dawley rats, 7 received intraperitoneal saline injection and 5 received intraperitoneal” for “Intraperitoneal”, “1” for “was given to 6 Sprague-Dawley rats 18”, “full anaesthesia” for “general anesthesia”

[4] = tested on: rats; experiment: Experimental retinal vein occlusion, blood-retina barrier permeability by vitreous fluorometry; details: i.p. isotretinoin 5 mg/mild in DMSO for five days before examination, 14 days after photocoagulation; 7 rats; p<0.012
Method: Purpose: To assess the effect of isotretinoin on the integrity of the blood-retina barrier in experimental retinal vein occlusion. Material and methods: Occlusion of all retinal veins near the rim of the optic nerve head was induced by laser photocoagulation in 14 rats. Blood-retina barrier permeability was measured using vitreous fluorometry 2 weeks later. In 7 rats, intraperitoneal isotretinoin 5 mg/mild in dimethyl sulfoxide (DMSO) was administered for five days before the examination of vascular leakage 14 days after photocoagulation. The study adhered to the ARVO resolution on animal welfare.

**Q.** What does the source list for CC1=C(/C=C/C(C)=C/C=C/C(C)=C\C(=O)O)C(C)(C)CCC1 [isotretinoin, 13-cis-retinoic acid]?
**A.** change in retinal vein diameter [1]: −9%; eyes subjected to ischemia with normal scotopic ERG amplitudes ([2]; isotretinoin 5 mg/kg i.p. in DMSO 18 h before 1 h ischemia (IOP 110 mmHg), ERG 1 week later, 6 treated rats): 6 eyes; scotopic ERG amplitudes ([2]; isotretinoin 5 mg/kg i.p. in DMSO 18 h before 1 h ischemia, eyes subjected to ischemia, 1 week after ischemia): 60-120 μV; animals with flat ERG, of 5 eyes subjected to ischemia [3]: 2 animals; animals with intact scotopic ERG, of 5 eyes subjected to ischemia [3]: 3 animals; retinal vascular leakage compared to untreated animals [4]: lower
